The values that follow come from PubChem BioAssay (NCI).

Structures are written as SMILES.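 Cells were grown in 96-well plates and exposed to each compound for 48 hours at five concentrations; endpoints were interpolated linearly between bracketing concentrations, or set to the highest concentration if not reached. TGI is the concentration that stops growth completely.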 A value given as a limit tells only on which side of the number the result lay.

For one experiment, the system named is P388 leukemia. The experiment is described as follows: NCI tumour cell line growth inhibition, 48 h.
Another experiment deals with P388/ADR leukemia. The experiment is described as follows: NCI tumour cell line growth inhibition, 48 h.

`C(=C/c1nc2ccccc2o1)/c1ccc2c(c1)OCO2`: the TGI was > 35.8 µM with P388 leukemia and > 43.7 µM with P388/ADR leukemia.

For `CCOC(=O)C(C)N1C(=O)c2ccccc2S1(=O)=O` (centres undefined), the TGI in the experiment with P388 leukemia and in the experiment on P388/ADR leukemia was > 100 µM throughout.
